Broadly, the Ki is a dissociation constant, usually derived from enzyme kinetics or from competition with a known ligand. The term IC50 denotes the point on the concentration scale where inhibition reaches its midpoint.

Structures are written as SMILES.

Data on two compounds can be found in patent publication US6900194B1, “Use of substituted 4-biarylbutyric and 5-biarylpentanoic acid derivatives as matrix metalloprotease inhibitors for the treatment of respiratory diseases” (Bayer Aktiengesellschaft, priority 1998, dated 2005).

The test concerns the target T1, MMP-3 (Stromelysin) (Homo sapiens, UniProt P08254).
T1 construct: Truncated Pro-stromelysin-257 is expressed in a soluble form in E. coli as described by Marcy et al; made in house; host or cells: E. coli
The test can be described thus: P218 quenched fluorescence assay, MMP-3. The test is classed as biochemical. From the text: P218 Quenched Fluorescence Assay for MMP Inhibition:
This assay is adapted from the one described by Knight et al., FEBS Letters, 296, 263-266 (1992) for MMP-3 and a related substrate. The rate of hydrolysis of the synthetic substrate H-MCA-Pro-Lys-Pro-Leu-Ala-Leu-DPA-Ala-Arg-NH2 (P218) by the respective MMPs is monitored fluorometrically, using an excitation wavelength of 340 nm and an emission wavelength of 395 nm, in the presence or absence of the test compounds. The substrate is made up initially in 100% DMSO to a concentration of 1×10^−2 M, then diluted in assay buffer to a final concentration of 20 μM. […] The total assay volume in a 96 well microtitre plate is 150 μl, Cleavage of the substrate between the Leu-Ala residues allows the fluorescence of the MCA group to be detected on a fluorometer (Cytofluor II) following excitation at 340 nm and emission at 395 nm. Change in fluorescence is continually monitored for a 40 min period.
The Ki's are calculated using the method described by Williams and Morrison, Methods in Enzymology, 63, 437-467 (1979) to measure Ki apparent for tight binding inhibitors, and is summarised as follows: [I]0/(1−vi/v0)=Ki apparent ×vi/v0+[E]0 [I]0 and [E]0 are inhibitor and enzyme concentrations, and vi/v0 are reaction velocities with/without inhibitor. […]
IC50's are determined at each enzyme concentration using Xlfit software. […]

T1 sequence (P08254 100-274): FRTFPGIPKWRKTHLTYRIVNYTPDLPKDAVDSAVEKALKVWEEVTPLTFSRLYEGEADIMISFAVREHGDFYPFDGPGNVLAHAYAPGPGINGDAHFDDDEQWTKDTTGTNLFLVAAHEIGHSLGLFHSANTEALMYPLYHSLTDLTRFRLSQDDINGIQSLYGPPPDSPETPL

As for `O=C(CC(CCN1C(=O)c2ccccc2C1=O)C(=O)O)c1ccc(-c2ccc(Cl)cc2)cc1` (single isomer, unassigned; (+)) [Example 4, (+)-4-(4′-Chloro[1,1′-biphenyl]4-yl)-2-[2-(1,3-dioxo-1,3-dihydro-2H-isoindol-2-yl)ethyl]-4-oxobutanoic acid], under “read-out: Potency Ki vs. MMP-3”, the Ki was found to be 3.7 nM. Turning to `CCOc1ccc(-c2ccc(C(=O)CC(CCN3C(=O)c4ccccc4C3=O)C(=O)O)cc2)cc1` (single isomer, unassigned; (+)) [Example 2, (+)-2-[2-(1,3-Dioxo-1,3-dihydro-2H-isoindol-2-yl)ethyl]-4-(4′-ethoxy[1,1′-biphenyl]-4-yl)-4-oxobutanoic acid], the IC50 (read-out: IC50 vs. MMP-3 (value marked *)) came to 60 nM.
